From patent US20130121930A1, “Use of Glyceryl Trinitrate for Treating Hematomas” (priority 2010, published 2013) come the findings set out here.

This experiment concerns hematomas. Nature of the experiment: Topically applied GTN on hematomas, general finding compared to untreated hematoma. It is filed as in vivo. An excerpt:
Instead of darkening of the skin, the healing occurs with a green, followed by a yellow, coloration of the affected skin area.

Where [1] appears, read: 1.2 to 6 mg GTN on the day of injury, then daily 0.8 to 1.6 mg GTN, compared to an untreated hematoma.

With `O=[N+]([O-])OCC(CO[N+](=O)[O-])O[N+](=O)[O-]` [GTN, glyceryl trinitrate], the “typical darkening of the affected skin sites” value (1.2 to 6 mg GTN on the day of injury, then daily 0.8 to 1.6 mg GTN) is reported as “prevents the typical darkening”. Moreover, under setting [1], the individual healing phases result is on record as “significantly shortened” and the “overall healing period for the treated hematomas” value is reported as “reduced by one-half”. The healing of hematomas result (topically applied) is “greatly accelerates”.
